These results are taken from patent publication EP0495091B1 (Metabasis Therapeutics Inc., priority 1990, dated 1992).

Counter-ions that a name gives are not always drawn. Like-named read-outs stand apart in the source and are kept apart here.

One test deals with Isolated rat hearts. The test is described as follows: Improved functional recovery in isolated hearts (Langendorff, post-ischemic LVDP). The settings on record: 5 µM in perfusion buffer; 30 min ischemia, 30 min reperfusion; number in brackets = hearts. The method, then: Isolated rat hearts were cannulated via the ascending aorta and attached to a perfusion apparatus according to the method of Langendorff. The hearts were perfused at a constant pressure of 100 cm of H2O with a modified Krebs-Henseleit buffer (pH 7.4) at 37°C. As a measure of heart function, left ventricular developed pressure (LVDP) was continuously monitored. Following equilibration of the hearts for a period of 30 min., the hearts were subjected to reduced flow i.e. ischemia, by reducing the pressure to 10 cm of H2O for 30 min. Flow was then restored by returning the pressure to its original level (100 cm of H2O) for a further 30 min.

For test [1], the system named is longitudinal muscle from the guinea pig ileum. The test is described as follows: Inhibition of stimulated contraction in isolated ileum. The conditions noted are these: concentration which inhibited electrically stimulated contraction by 50%, read-out: IC50.
Description: Parallel platinum electrodes were used to deliver electrical current at 1 minute intervals at a voltage adequate to induce contraction of 90% of maximal.
Test [2] addresses T1, NBTI-specific adenosine transport site (Homo sapiens, UniProt Q99808).
T1 construct: incubated for 30 minutes with 0.5 mg neuronal membrane protein together with 0.5 nM [^3H]-NBTI; from tissue
T1 sequence (Q99808 1-456): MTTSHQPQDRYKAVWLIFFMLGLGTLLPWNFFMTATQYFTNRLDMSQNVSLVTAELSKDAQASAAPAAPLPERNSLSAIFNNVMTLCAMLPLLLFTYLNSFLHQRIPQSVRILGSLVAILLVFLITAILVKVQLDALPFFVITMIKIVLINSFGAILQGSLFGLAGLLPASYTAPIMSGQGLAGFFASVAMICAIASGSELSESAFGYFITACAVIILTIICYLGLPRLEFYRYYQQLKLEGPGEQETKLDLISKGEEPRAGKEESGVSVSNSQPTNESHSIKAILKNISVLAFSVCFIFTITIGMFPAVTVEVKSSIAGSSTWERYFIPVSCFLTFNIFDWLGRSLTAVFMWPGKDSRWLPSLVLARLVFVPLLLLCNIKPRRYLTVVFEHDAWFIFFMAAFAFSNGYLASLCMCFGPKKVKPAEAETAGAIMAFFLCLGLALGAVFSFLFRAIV
Briefly: [3H]-NBTI binding assay. The conditions noted are these: 50% displacement of bound [3H]-NBTI (0.5 nM); neuronal membrane protein, 30 minutes, pH 7.4, room temperature; read-out: ED50 (the source's name). The protocol:
Increasing concentrations of the test compounds were incubated for 30 minutes with 0.5 mg neuronal membrane protein together with 0.5 nM [^3H]-NBTI in a Tris buffer (pH 7.4) at room temperature. The assays were quenched and membranes collected by rapid filtration. Filters were then solubilized and radioactivity determined by scintillation counting.

The test system of test [3] is coronary endothelial cells. Briefly: Inhibition of adenosine utilization in cell culture. In kind it is cell-based. The settings on record: for inhibition at 5 µM / inhibition at 50 µM: Endothelial cell, read-out: Inhibition of Adenosine Utilization (%). The protocol:
Inhibition of adenosine utilization was determined by measuring the concentration of extracellular adenosine by scintillation counting following separation by thin layer chromatography (TLC).

Setting [4] is: 50 µM test compound, 1 µM [3H] adenosine, 15 minutes.
Where [5] appears, read: 5 µM test compound, 1 µM [3H] adenosine, 15 minutes.

With `CCN(CC)C[C@H]1O[C@@H](n2cnc(C(N)=O)c2N)[C@H](O)[C@@H]1O` [compound 65, 5-Amino-1-(5-deoxy-5-diethylaminoribo-β,D-furanosyl)imidazole-4-carboxamide], the “Function Recovery % Baseline LVDP (% of hearts)” value in the test with Isolated rat hearts was 72.3±5.6 (4) %.

For orientation: IC50 means the midpoint of a concentration-inhibition curve. `Nc1c(C(=O)NC[C@H](O)c2ccc(O)c(O)c2)ncn1[C@@H]1O[C@H](CO)[C@@H](O)[C@H]1O` [compound 42, (R)-5-Amino-1-β-D-ribofurano-sylimidazole-4-N-[2-hydroxy-2-(3,4-dihydroxyphenyl)ethyl]carboxamide]: the IC50 in test [1] turned out to be 6 µM.

On to `Nc1c(C(=O)Nc2ccc([N+](=O)[O-])cc2)ncn1[C@@H]1O[C@H](CO)[C@@H](O)[C@H]1O` [Compound No. 58, 5-Amino-1-β-D-ribofuranosylimidazole-4-N-(4-nitrophenyl)carboxamide], for which the EC50 in test [2] stood at 80 µM.

In the case of `Nc1c(C(=O)NCc2ccc(S(N)(=O)=O)cc2)ncn1[C@@H]1O[C@H](CO)[C@@H](O)[C@H]1O` [Compound No. 75, 5-Amino-1-β-D-ribofuranosylimidazole-4-N-[(4-sulfamoylphenyl)methyl]carboxamide], the “Inhibition of Adenosine Utilization (%)” value in test [3] (setting [4]) is 30 ± 3%.

Take `NC(=O)c1ncn([C@@H]2O[C@H](CNCc3ccccc3)[C@@H](O)[C@H]2O)c1N` [Compound No. 66, 5-Amino-1-β-D-(5-benzylamino-5-deoxyribofuranosyl)imidazole-4-carboxamide]: the “Function Recovery % Baseline LVDP (% of hearts)” value with Isolated rat hearts was 88.5±1.8 (5) %.

As for `Nc1c(C(=O)NCc2ccc(C(F)(F)F)cc2)ncn1[C@@H]1O[C@H](CO)[C@@H](O)[C@H]1O` [Compound No. 74], the “Function Recovery % Baseline LVDP (% of hearts)” value with Isolated rat hearts is given as 73.3±3.3 (6) %.

In the case of `CNC[C@H]1O[C@@H](n2cnc(C(N)=O)c2N)[C@H](O)[C@@H]1O` [Compound No. 63, 5-Amino-1-β-D-(5-deoxy-5-methylaminoribofuranosyl)imidazole-4-carboxamide], the “Function Recovery % Baseline LVDP (% of hearts)” value in the test on Isolated rat hearts is reported as 79.7±4.8 (4) %.

Regarding `CN(C)c1ccc(CNC(=O)c2ncn([C@@H]3O[C@H](CO)[C@@H](O)[C@H]3O)c2N)cc1` [Compound No. 41, 5-Amino-1-β-D-ribofuranosylimidazole-4-N(4-dimethylaminobenzyl)-carboxamide hydrochloride], the IC50 in test [1] was 100 µM.

In the case of `Nc1c(C(=O)Nc2ccccc2Cl)ncn1[C@@H]1O[C@H](CO)[C@@H](O)[C@H]1O` [Compound No. 64, 5-Amino-1-β-D-ribofuranosylimidazole-4-N-(2-chlorophenyl)carboxamide], the EC50 in test [2] stood at 48 µM.

With `C[C@H]1O[C@@H](n2c(S)nc(C(N)=O)c2N)[C@H](O)[C@@H]1O` [Compound No. 67, 5-Amino-2-thio-1-β-D-(5-deoxyribofuranosyl)imidazole-4-carboxamide], in the test with Isolated rat hearts, the “Function Recovery % Baseline LVDP (% of hearts)” value was 77.4±5.7 (3) %.

`Nc1c(C(=O)Nc2ccc(I)cc2)ncn1[C@@H]1O[C@H](CO)[C@@H](O)[C@H]1O` [Compound No. 57, 5-Amino-1-β-D-ribofuranosyl-imidazole-4-N-(4-iodophenyl)carboxamide]: the EC50 in test [2] is 80 µM.

Regarding `Cl.NC[C@H]1O[C@@H](n2cnc(C(=O)NC3CCCC3)c2N)[C@H](O)[C@@H]1O` [Compound No. 37, 5-Amino-1-(5-amino-5-deoxy-β-D-ribofuranosyl)imidazole-4-N-(cyclopentyl)carboxamide Hydrochloride], the “Function Recovery % Baseline LVDP (% of hearts)” value in the test with Isolated rat hearts is reported as 71.9±3.0 (5) %.

One may read the inhibition as how much of the control response was suppressed. Turning to `[N-]=[N+]=NC[C@H]1O[C@@H](n2cnc(C(=O)NCc3ccc(Cl)cc3)c2N)[C@H](O)[C@@H]1O` [Compound No. 52, 5-Amino-1-(5-azido-5-deoxy-β-D-ribofuranosyl)imidazole-4-N-[(4-chlorophenyl)methyl]-carboxamide], the “Function Recovery % Baseline LVDP (% of hearts)” value in the test with Isolated rat hearts is reported as 86.0±2.5 (5) %. For the same molecule, the inhibition at 5 µM in test [3] (setting [5]) stood at 56 ± 2%. Further, the inhibition at 50 µM in test [3] (setting [4]) came out at 71 ± 1%.

As for `Nc1c(C(=O)N2CCN(c3ccc([N+](=O)[O-])cc3)CC2)ncn1[C@@H]1O[C@H](CO)[C@@H](O)[C@H]1O` [Compound No. 60, 5-Amino-4-[1-[4-(4-nitrophenyl)]piperazinocarbamoyl]-1-β-D-ribofuranosylimidazole], in test [2], the EC50 was found to be 17 µM.

As to `Nc1c(C(=O)NCc2cccc(I)c2)ncn1[C@@H]1O[C@H](CO)[C@@H](O)[C@H]1O` [Compound No. 44, 5-Amino-1-β-D-ribofuranosyl-imidazole-4-N-[(3-iodophenyl)methyl]carboxamide], the IC50 in test [1] (Cavia porcellus) was found to be 20 µM.

Take `NC(=O)c1ncn([C@@H]2O[C@H](CNCc3ccc(Cl)cc3)[C@@H](O)[C@H]2O)c1N` [Compound No. 76, 5-Amino-1-(5-(4-chlorobenzyl-amino)-5-deoxyβ-D-ribofuranosyl)imidazole-4-carboxamide]: in the test on Isolated rat hearts, the “Function Recovery % Baseline LVDP (% of hearts)” value is recorded as 74.0±2.5 (6) %.

Regarding `C[C@@H](NC(=O)c1ncn([C@@H]2O[C@H](CO)[C@@H](O)[C@H]2O)c1N)c1ccc([N+](=O)[O-])cc1` [Compound No. 49], in test [3], the inhibition at 5 µM turned out to be 30 ± 4% and the inhibition at 50 µM came out at 33 ± 8%. Moreover, the EC50 in test [2] was 7 µM.

In the case of `Nc1c(C(=O)N2CCc3ccccc32)ncn1[C@@H]1O[C@H](CO)[C@@H](O)[C@H]1O` [Compound No. 48, 5-Amino-1-β-D-ribofuranosyl-imidazole-4-N-indolinylcarboxamide], in test [3], the inhibition at 5 µM worked out at 23 ± 3% and the inhibition at 50 µM amounted to 25 ± 2%. Besides, in test [2], the EC50 is 22 µM.

Take `Nc1c(C(=O)NCc2cccc(Cl)c2)ncn1[C@@H]1O[C@H](CO)[C@@H](O)[C@H]1O` [Compound No. 35, 5-amino-1-β-D-ribofuranosyl-imidazole-4-N[(3-chlorophenyl)methyl]carboxamide]: the IC50 in test [1] (Cavia porcellus) stood at 60 µM.

For `Nc1c(C(=O)NCCCc2ccc([N+](=O)[O-])cc2)ncn1[C@@H]1O[C@H](CO)[C@@H](O)[C@H]1O` [Compound No. 73], the entries for the “Inhibition of Adenosine Utilization (%)” value in test [3] (setting [5]) and in test [3] (setting [4]) were 16 ± 0% and 33 ± 9%, respectively.

Turning to `Nc1c(C(=O)NC2CCC(NC(=O)c3ncn([C@@H]4O[C@H](CO)[C@@H](O)[C@H]4O)c3N)CC2)ncn1[C@@H]1O[C@H](CO)[C@@H](O)[C@H]1O` (stereo partly drawn) [Compound No. 69, N,N'-Bis-(5-Amino-1-β-D-ribofuranosylimidazole-4-carbonyl)-1,4-diaminocyclohexane], in the test with Isolated rat hearts, the “Function Recovery % Baseline LVDP (% of hearts)” value is 77.0±2.8 (6) %.

Take `CSC[C@H]1O[C@@H](n2cnc(C(N)=O)c2N)[C@H](O)[C@@H]1O` [Compound No. 54, 5-Amino-1-(5-deoxy-5-methylthio-β-D-ribofuranosyl)imidazole-4-carboxamide]: in test [2], the EC50 was 28 µM.

`C[C@H](NC(=O)c1ncn([C@@H]2O[C@H](CO)[C@@H](O)[C@H]2O)c1N)c1ccc([N+](=O)[O-])cc1` [Compound No. 50, (S)-5-Amino-1-β-D-ribofuranosylimidazole-4-N-[1-(4-nitrophenyl)ethyl]carboxamide]: in test [2], the EC50 came to 28 µM.

For the molecule `Nc1c(C(=O)NCCCCCCNC(=O)c2ncn([C@@H]3O[C@H](CO)[C@@H](O)[C@H]3O)c2N)ncn1[C@@H]1O[C@H](CO)[C@@H](O)[C@H]1O` [Compound No. 68, N,N'-bis-(5-amino-1-β-D-ribofuranosylimidazole-4-carbonyl)-1,6-diaminohexane], the “Function Recovery % Baseline LVDP (% of hearts)” value with Isolated rat hearts is recorded as 75.3±2.2 (4) %.

As for `Nc1c(C(=O)NCc2ccc([N+](=O)[O-])cc2)ncn1[C@@H]1O[C@H](CI)[C@@H](O)[C@H]1O` [Compound No. 46, 5-Amino-1-(5-iodo-5-deoxy-β-D-ribofuranosyl)imidazole-4-N-[(4-nitrophenyl)methyl]carboxamide], in test [3], the inhibition at 5 µM was found to be 19 ± 4% and the inhibition at 50 µM came out at 30 ± 9%. Further, in test [2], the EC50 was 8 µM.

`Nc1c(C(=O)Nc2ccc(Br)cc2)ncn1[C@@H]1O[C@H](CO)[C@@H](O)[C@H]1O` [Compound No. 55, 5-Amino-1-β-D-ribofuranosylimidazole-4-N-(4-bromophenyl)carboxamide]: the EC50 in test [2] was 60 µM.
